# Measured values: US6380155B1, “Use of vasopressin receptor antagonist for regulation of ACTH release” (SmithKline Beecham plc., priority 1996, dated 2002)
# System: ob/ob mice
# Assay: Plasma corticosterone in ob/ob mice after 7-day osmotic minipump treatment
# Assay type: in vivo, mouse
# Conditions: C57BL/6J ob/ob mice, 86.4 μg/day by osmotic minipump for 7 days
# Experimental: A study was performed in 4-6 weeks old C57BL/6J mice homozygous (ob/ob) for the obese gene mutation to assess the effect of [deamino-Pen^1, o-Me-Tyr^2, Arg^8]-AVP (Sigma) a non-selective peptide V1b receptor antagonist on corticosterone concentration. Osmotic minipumps (Alzet Model 1007D, 0.5 μl/h for 7 days) were filled either with the peptide (to deliver 86.4 μg/day for 7 days) or vehicle and primed at least for 4 h at 37° C. before their implantation. A group of mice heterozygous (+/?) for the obese gene mutation was also implanted with osmotic minipumps filled with vehicle alone. After 7 days of treatment blood was collected into EDTA tubes and separated plasma assayed for corticosterone concentration measurement, by using a commercial rat ^125I-corticosterone (Amersham, U.K.).
substance,measurement,setting,value
"[deamino-Pen^1, o-Me-Tyr^2, Arg^8]-AVP [AVP antagonist]",Plasma corticosterone concentration,"n=7 per group, vehicle 228.9±63 ng/ml",109.9 ± 19.4 ng/mL
same,Plasma corticosterone concentration (effect in words),versus vehicle and lean group,reduced
